Results as given in ChEMBL document CHEMBL5303304, “EUbOPEN Chemogenomics Library - IncuCyte” (2023).

Experiments:
Assay type in all cases: toxicity, cell-based
HEK-293T = assay: Incucyte cell viability with HEK293T; conditions: human, 10 µM, compound concentration 10 uM
Fibroblast = assay: Incucyte cell viability with human fibroblast; conditions: 10 µM, compound concentration 10 uM
U2OS = assay: Incucyte cell viability with U2OS; conditions: human, 10 µM, compound concentration 10 uM
Also: unitless GR value; below 1 slowed growth and below 0 cell loss.

Row | Structure (SMILES) | Growth Rate (HEK-293T; 0 h, replicate number 1) | Growth Rate (HEK-293T; 0 h, replicate number 2) | Growth Rate (HEK-293T; 6 h, replicate number 1) | Growth Rate (HEK-293T; 18 h, replicate number 1) | Growth Rate (HEK-293T; 24 h, replicate number 1) | Growth Rate (Fibroblast; 0 h, replicate number 2) | Growth Rate (Fibroblast; 6 h, replicate number 1) | Growth Rate (Fibroblast; 24 h, replicate number 1) | Growth Rate (U2OS; 0 h, replicate number 1) | Growth Rate (U2OS; 6 h, replicate number 1) | Growth Rate (U2OS; 12 h, replicate number 1) | Growth Rate (U2OS; 24 h, replicate number 1) | Growth Rate (HEK-293T; 12 h, replicate number 1) | Growth Rate (Fibroblast; 6 h, replicate number 2) | Growth Rate (Fibroblast; 24 h, replicate number 2) | Growth Rate (U2OS; 12 h, replicate number 2) | Growth Rate (Fibroblast; 12 h, replicate number 2) | Growth Rate (Fibroblast; 18 h, replicate number 2) | Growth Rate (Fibroblast; 0 h, replicate number 1) | Growth Rate (Fibroblast; 18 h, replicate number 1) | further results
1 | O=C(O)CCCCN(CCc1ccccc1OCc1ccc(CCc2ccccc2)cc1)Cc1ccc(C(=O)O)cc1 | 0.96 | 0.47 | 0.91 | 0.87 | 0.99 | -0.44 | 0.92 | 0.98 | 0.14 | 0.32 | 0.91 | 0.86 |  |  |  |  |  |  |  |  | Growth Rate (U2OS; 18 h, replicate number 1): 0.83
2 | O=C(O)C[C@H]1CC[C@H](c2ccc(NC(=O)c3nnc(Nc4ccc(F)c(F)c4)o3)cc2)CC1 | 0.29 | -0.23 | 0.74 | 0.76 | 0.86 |  |  |  |  |  |  |  | 0.69 | 0.97 | 0.99 | 0.72 |  |  |  |  | Growth Rate (U2OS; 6 h, replicate number 2): 0.7; Growth Rate (U2OS; 18 h, replicate number 2): 0.93; Growth Rate (U2OS; 24 h, replicate number 2): 0.96
3 | O=C(O)c1ccc(OCCCc2ccc(OCCCCOC3CCCCC3)cc2)c(C(=O)NC2CCCC(C(=O)O)C2)c1 (stereo unspecified) | -0.01 |  | 0.96 |  |  |  |  |  |  |  |  | 0.89 | 0.94 | -0.02 | 0.73 |  | 0.19 | 0.41 |  |  | Growth Rate (HEK-293T; 18 h, replicate number 2): 0.94; Growth Rate (HEK-293T; 24 h, replicate number 2): 0.92
4 | COP(=O)(CCC(N)C(=O)O)Oc1cccc(CC(=O)O)c1 (stereo unspecified) | 0.66 |  |  | 0.94 | 0.92 | -0.57 | 0.49 | 0.74 | 0.98 | 0.8 |  |  | 0.97 |  |  | 0.91 |  |  | -1 | 0.86 | Growth Rate (Fibroblast; 12 h, replicate number 1): 0.92; Growth Rate (U2OS; 24 h, replicate number 2): 0.93
5 | CN(C)C(=O)Cn1cc(-c2ccc(-c3cncc4ccccc34)cc2)cn1 | 0.29 | 0.39 | 0.92 |  |  |  | 0.8 |  | 0.61 | 0.46 |  | 0.9 |  | -0.33 |  | 0.83 | 0.98 |  | -1 |  | Growth Rate (U2OS; 18 h, replicate number 1): 0.99
6 | CC(=O)c1c(C)c2cnc(Nc3ccc(N4CCN(CCOCCOCCOCCNC(=O)COc5cccc6c5C(=O)N(C5CCC(=O)NC5=O)C6=O)CC4)cn3)nc2n(C2CCCC2)c1=O (stereo unspecified) | 0.95 |  |  |  |  | 0.18 |  |  |  |  | 0.99 |  |  |  | 0.89 | 0.93 | 0.92 |  |  |  | 
7 | O=C(O)c1ccc2c(c1)nc(NCc1ccccc1)c1ncncc12 | -0.17 | -0.9 |  |  |  | -0.94 |  |  | 0.98 |  |  |  |  |  |  |  |  |  | -0.98 |  | Growth Rate (Fibroblast; 12 h, replicate number 1): 0.74
8 | CCn1c(CNC(=O)c2ncc(C)nc2N)[n+](CC)c2ccc(C(=O)N(C)CCN(C)C)cc21.Cl.Cl.[Cl-] | 0.03 |  |  |  | 1 | -0.3 | 0 | 0.9 |  | 0.58 | 0.62 | 0.97 | 0.97 |  |  | 0.9 |  |  | -1 | 0.98 | Growth Rate (Fibroblast; 12 h, replicate number 1): 0.87; Growth Rate (U2OS; 0 h, replicate number 2): 0.31; Growth Rate (U2OS; 6 h, replicate number 2): 0.99
9 | COc1ccc(-c2c(-c3ccccc3)oc3ncnc(O[C@H](C)CCCCC(=O)O)c23)cc1 | 0.1 | 0.14 |  |  |  |  | 0.79 | 0.88 |  |  | 0.94 |  |  | -0.43 |  |  | 0.48 | 0.98 | -1 |  | 
10 | NC(=O)OC[C@H](NC(=O)Cn1nc(-c2ccc(Cl)cc2)n(C[C@H](O)C(F)(F)F)c1=O)c1cccc(C(F)(F)F)c1 | 0.72 | -0.43 |  | 0.84 | 0.71 | 0.27 | 0.56 | 0.84 | 0.95 | 0.83 | 0.85 | 0.9 | 0.8 | -0.17 | 0.7 |  | 0.75 | 0.65 |  | 0.71 | Growth Rate (HEK-293T; 18 h, replicate number 2): 0.83; Growth Rate (HEK-293T; 24 h, replicate number 2): 0.79; Growth Rate (Fibroblast; 12 h, replicate number 1): 0.83
11 | CO[C@H]1CC[C@H](N(c2cc(F)c(Oc3ncc(Cn4nccn4)cc3C(F)(F)F)cc2C(=O)O)C(=O)[C@H]2CC[C@H](C)CC2)CC1 | 0.27 | -0.25 |  |  |  |  | 0.07 | 0.77 | 0.66 | 0.6 |  |  |  | -0.41 | 0.67 | 0.82 |  |  | -1 | 0.76 | Growth Rate (U2OS; 6 h, replicate number 2): 0.76; Growth Rate (U2OS; 18 h, replicate number 2): 1; Growth Rate (U2OS; 24 h, replicate number 2): 0.87
12 | COc1ccc2c(O[C@@H]3C[C@H]4C(=O)N[C@]5(C(=O)NS(=O)(=O)C6(C)CC6)CC5/C=C\CCCCC[C@H](NC(=O)c5ccn(C)n5)C(=O)N4C3)cc(OC(C)C)nc2c1C (stereo partly specified) | 1 | 0.49 | 0.89 | 0.9 | 0.9 | 0.85 |  | 0.9 |  |  |  |  | 0.8 | -0.88 | 0.88 | 0.63 |  | 0.84 |  | 0.9 | Growth Rate (U2OS; 0 h, replicate number 2): -0.46; Growth Rate (U2OS; 6 h, replicate number 2): 0.93; Growth Rate (U2OS; 18 h, replicate number 1): 0.99; Growth Rate (U2OS; 18 h, replicate number 2): 0.79; Growth Rate (U2OS; 24 h, replicate number 2): 0.78
13 | Cc1nc2ccc(Cl)cc2c(-c2ccccc2)c1CC(=O)O.Cl | 0.38 |  |  |  |  |  |  |  | 0.45 | 0.43 |  |  |  |  | 0.96 | 0.93 | 0.53 | 0.88 |  |  | 
14 | C1CCC(NC2CCCCC2)CC1.Cc1cc(Cl)ccc1S(=O)(=O)NC[C@H]1C2CCC(CC2)[C@@H]1/C=C\CCCC(=O)O | 0.61 |  |  |  |  | -0.12 | 0.25 |  |  |  |  |  |  | 0.75 |  |  | 0.97 | 0.9 |  |  | Growth Rate (U2OS; 18 h, replicate number 2): 0.99
15 | Oc1c(-c2cccnc2)cnn1-c1ccccn1 | 0.54 | -0.2 | 0.91 |  |  | 0.86 |  | 0.87 |  | 0.87 |  | 0.84 |  |  | 0.59 |  |  | 0.44 |  |  | 
16 | CCCN1CCC(C#N)(NC(=O)[C@H](CC(C)(C)C)NC(=O)N2CCOCC2)CC1 | 0.04 |  |  |  |  | -0.89 | 0.97 | 0.83 |  | 0.96 |  |  |  |  |  |  | 0.45 |  |  | 0.88 | Growth Rate (Fibroblast; 12 h, replicate number 1): 0.82; Growth Rate (U2OS; 0 h, replicate number 2): 0.82
17 | Cc1c(N2CCCC2)nc2ccc(Br)cc2c1C(=O)NC[C@H](CCC(=O)O)c1ccccc1Cl.Cl.O | 0.22 | -0.18 |  |  |  | -0.4 | 0.4 |  |  | 0.65 | 0.97 | 0.91 |  |  |  |  | 0.93 |  | -1 |  | Growth Rate (U2OS; 0 h, replicate number 2): -0.04; Growth Rate (U2OS; 18 h, replicate number 1): 0.93; Growth Rate (U2OS; 18 h, replicate number 2): 0.99; Growth Rate (U2OS; 24 h, replicate number 2): 0.92
18 | Nc1ncc2c(n1)-c1c([nH]c3ccc(C4=CCOCC4)cc13)CCC2 | 0.56 | -0.64 | -0.33 | 0.18 | 0.37 | -0.45 |  | 0.68 |  | 0.74 |  | 0.76 | -0.13 |  | 0.71 | 0.98 | 0.71 | 0.96 |  | 0.73 | Growth Rate (HEK-293T; 6 h, replicate number 2): -0.1; Growth Rate (HEK-293T; 12 h, replicate number 2): -0.09; Growth Rate (HEK-293T; 18 h, replicate number 2): 0.36; Growth Rate (HEK-293T; 24 h, replicate number 2): 0.41; Growth Rate (Fibroblast; 12 h, replicate number 1): 0.69; Growth Rate (U2OS; 0 h, replicate number 2): 0.72; Growth Rate (U2OS; 18 h, replicate number 1): 0.96
19 | C[C@@H]1CC(=O)N(C2CC2)N=C1c1ccc(NC(=O)N2Cc3ccncc3C2)cc1 | 0.95 | -0.07 | 0.41 | 0.46 | 0.28 | -0.77 | 0.8 |  |  | 0.59 | 0.94 | 0.95 | 0.41 | -0.07 | 0.81 |  | 0.57 | 0.85 | -0.95 |  | Growth Rate (HEK-293T; 6 h, replicate number 2): 0.39; Growth Rate (HEK-293T; 12 h, replicate number 2): 0.67; Growth Rate (HEK-293T; 18 h, replicate number 2): 0.53; Growth Rate (HEK-293T; 24 h, replicate number 2): 0.32
